Results from article PMC8778022, “Synthesis and Biological Activity of 3-(Heteroaryl)quinolin-2(1H)-ones Bis-Heterocycles as Potential Inhibitors of the Protein Folding Machinery Hsp90” (Molecules, 2022).
Entries after “also recorded” stand apart in the source; their conditions may differ. Like-named read-outs stand apart in the source and are kept apart here. Each block holds one compound with its values, some of them ahead of it.

Experiments:
Hsp90α/β = test: Western blot of Hsp90 level in PC-3 cells; type: cell-based, human; settings: 15 µM, 72 h, without triggering the HSR
Procedure: (§1) For protein expression analysis, cells were seeded at a rate of 0.75 × 10^6 cells on a 25 cm^2 surface. At the end of the treatment the cells were washed and lysed with RIPA buffer (Sigma Aldrich, Saint-Quentin-Fallavier, France city, country) to which protease inhibitors (Sigma Aldrich, Saint-Quentin-Fallavier, France SIGMA) were added. After 30 min of lysis on ice, the samples were centrifuged (3500 rpm, 10 min) and stored at −20 °C. Total protein concentration was obtained using the Bio-rad Protein Assay reagent (Bio-Rad Laboratories, Marnes-la-Coquette, France city, country). […] Immunorevelation was performed as follows: 1 h saturation of the membrane with TBS-Tween (0.1%)–5% skim milk followed by overnight incubation in primary antibody solution (antibodies were from Santa Cruz Biotechnologies, Clinisciences, Nanterre, France or from Sigma Aldrich, Saint-Quentin-Fallavier, France)(See Table 3). After 1 h of washing in 0.1% TBS-Tween, the membranes were contacted with the second horseradish peroxidase-coupled antibody. Detection of the chemiluminescence signal (SuperSignal Pierce reagent, Fisher Scientific, Illkirch, France) was performed using the ChemiBis gel Imager (DNR Bio-Imaging Systems, Israel).
(§2) Figure 2 Effects of quinolone analogues 3a–e, 4e and 5b on HSP90 machinery protein levels and on CDK-4 stability. PC-3 cells were grown and exposed to Hsp90 inhibitors (3a–e, 4e and 5b, 15 µM) as described in Experimental section for 72 h and cell lysates were analyzed by Western blotting with regard to the levels of CDK-4, Hsp90α/β and Hsp70. NT corresponds to untreated cells; D, DMSO-treated cells were used as controls, GADPH level is used for control in protein loading on gels.

Hsp70 = test: Western blot of Hsp70 level in PC-3 cells; type: cell-based, human; settings: 15 µM, 72 h, without triggering the HSR
Procedure: as §1, §2

CDK-4 = test: Western blot of Hsp90 client protein CDK-4 in PC-3 cells; type: cell-based, human; settings: for CDK-4 client protein level (Western blot): PC-3 cells, 15 µM, 72 h; for CDK-4 client protein level: as printed in abstract and conclusions
Procedure: as §1, §2

PC-3 cells = test: MTS cell viability / growth inhibition assay, PC-3 cells, 72 h; type: cell-based, human; settings: for viability at 15 µM: PC-3, 72 h; for GI50: PC-3, concentration needed to reduce cell growth by 50%, 72 h treatment, estimated, read-out: GI50 anti-proliferative effect PC-3
Procedure: (§3) Upon completion of their syntheses, the in vitro activity of quinolone derivatives 3a–f, 4a–h, and 5a,b was evaluated by their growth-inhibitory potency in three cancer cell lines. At first, the viability of the synthesized compounds was examined with the MDA-MB-231 […] breast cancer cell line at concentrations of 10 µM, 15 µM, and 25 µM. Prostate cancer PC-3 cells and human fetal lung fibroblast MRC-5 cell lines were also subjected to this series of compounds at a unique concentration of 15 µM.
Then, the growth inhibitory activities against PC-3 prostate cancer cell line were measured for the selected 3-heteroaryl-quinolin-2(1H)-one derivatives 3a–e.
(§4) MDA-MB-231 cells were grown in L15 supplemented with 15% serum, 2 mM glutamine, and 22 mM sodium bicarbonate in the presence of Penicillin/Streptomycin antibiotic mixture. PC-3 cells were cultured in RPMI 1640 supplemented with 10% serum and 2 mM glutamine in the presence of Penicillin/Streptomycin antibiotic mixture. MRC-5 cells were cultured in EMEM supplemented with 10% serum and 2 mM glutamine in the presence of Penicillin/Streptomycin antibiotic mixture (Reagents were purchased from Sigma Aldrich, Saint-Quentin-Fallavier, France).
(§5) Cells were treated for 72 h with 10, 15, and 25 µM of the selected substances. Control cells were treated with the equivalent in DMSO.
(§6) Cell survival was assessed using the CellTiter Aqueous One Proliferation assay (Promega, Charbonnières-les-Bains, France) whereby 2500 or 5000 cells per well were seeded in 96-well plates in 100 µL. At the end of the treatment, 20 µL of reagent was added, and absorbance readings were taken at 492 nm on a 96-well plate reader after 3 h of contact (on average).

[1] = system: human fetal lung fibroblast MRC-5; test: MTS cell viability assay, MRC-5 cells, 72 h; type: cell-based; settings: % of viable cells compared to untreated cells 100%
Procedure: as §3, §4, §5, §6

MDA-MB-231 cells = test: MTS cell viability assay, MDA-MB-231 cells, 72 h; type: cell-based, human; settings: % of viable cells compared to untreated cells 100%; for viability at 10 µM / viability at 15 µM / viability at 25 µM: Homo sapiens, MDA-MB-231, 72 h
Procedure: as §3, §4, §5, §6

MCF7 = settings: Figure 1; cited from earlier work
SkBr3 cell lines = settings: cited from earlier work
[2] = system: Hsp90 client proteins (HER2, Raf-1 and cdk-4); settings: earlier studies on mode of action; cited from earlier work
[3] = system: MCF-7 breast cancer cell line; settings: earlier studies on mode of action; cited from earlier work
PC3 = settings: earlier studies on mode of action; cited from earlier work
[4] = MTS cell viability assay, MRC-5 cells, 72 h; type: cell-based, human; settings: human, MRC-5 fetal lung fibroblast cells, % of viable cells compared to untreated cells 100%
Procedure: as §3, §4, §5, §6

colon carcinoma cells = system: colon carcinoma cells; design: method as in PMID 34952432; settings: cited from earlier work
[5] = Homo sapiens, 15 µM, 72 h, MTS, % of viable cells compared to untreated cells 100%

Compound: COc1cc(Nc2ncnc3c2nc(-c2cc4ccccc4n(C)c2=O)n3Cc2ccccc2)cc(OC)c1OC [5b, 3-{9-benzyl-6-[(3,4,5-trimethoxyphenyl)amino]-9H-purin-8-yl}-1-methylquinolin-2(1H)-one]
Hsp90 level (heat shock response) (Hsp90α/β): stabilize | Hsp70 level (heat shock response) (Hsp70): stabilize | CDK-4 client protein level (Western blot) (CDK-4): degraded

Compound: Cn1c(=O)c(-c2nc3c(-c4ccc(Cl)cc4)ncnc3n2Cc2ccccc2)cc2ccccc21 [C00013]
viability at 15 µM (PC-3 cells; [5]): 91% | Cell viability [%] MRC-5 (15 µM) [1]: 79% | Cell viability [%] MDA-MB-231 (MDA-MB-231 cells; 25 µM): 27% | viability at 10 µM (MDA-MB-231 cells): 56% | viability at 15 µM (MDA-MB-231 cells): 57%

Compound: CO[C@@H]1[C@@H](OC(N)=O)[C@@H](O)[C@H](Oc2ccc3c(O)c(NC(=O)c4ccc(O)c(CC=C(C)C)c4)c(=O)oc3c2C)OC1(C)C [Novobiocin, novobiocin]
IC50 (MCF7): 260 µM

Compound: CC(C)NCCCn1c(Sc2cc3c(cc2I)OCO3)nc2c(N)ncnc21 [PU-H]
IC50 (SkBr3 cell lines; Figure 1): 0.05 to 0.09 µM

Compound: Cc1cc(C)cc(-c2ncnc3c2nc(-c2cc4ccccc4n(C)c2=O)n3Cc2ccccc2)c1 [C00011]
Cell viability [%] PC-3 (15 µM) (PC-3 cells; 15 µM, 72 h, MTS, % of viable cells compared to untreated cells 100%): 56% | Cell viability [%] MRC-5 (15 µM) [1]: 71% | viability at 10 µM (MDA-MB-231 cells): 57% | viability at 15 µM (MDA-MB-231 cells): 62% | viability at 25 µM (MDA-MB-231 cells; 25 µM): 50%

GI50 (PC-3 cells; Homo sapiens): 10 µM
Compound: COc1ccc(C(=O)Nc2cc3cc(Br)ccc3n(C)c2=O)cc1 [6BrCaQ]
Hsp90 client proteins (HER2, Raf-1 and cdk-4) [2]: downregulation | apoptosis level [3]: high apoptosis level | IC50 (MCF7): 7 µM | apoptosis level (PC3): high apoptosis level

melting point: 202 to 203 °C
Compound: Cn1c(=O)c(-c2nc3c(-c4ccc(Cl)cc4)ncnc3n2Cc2ccccc2)cc2ccccc21 [4g, 3-[9-benzyl-6-(4-chlorophenyl)-9H-purin-8-yl]-1-methylquinolin-2(1H)-one]
viability at 72 h, 15 µM [4]: 71 to 79% | viability at 25 µM (MDA-MB-231 cells; 25 µM): ~30%

Compound: Cn1c(=O)c(NC(=O)c2ccc(OCCCCCCCCCC[P+](c3ccccc3)(c3ccccc3)c3ccccc3)cc2)cc2cc(Br)ccc21.[Br-] [6BrCaQ-C10-TPP]
mitochondrial membrane disruption (colon carcinoma cells): significant mitochondrial membrane disruption

Compound: CN1CCC(Oc2ccc3cc(-c4cc5ccccc5s4)c(=O)oc3c2)CC1 [(I)]
IC50 (SkBr3 cell lines; cell death, SkBr3): 0.98 µM

GI50 (PC-3 cells; Homo sapiens): 28 µM | IC50 (PC-3 cells; Homo sapiens, as printed in abstract and b26, refers to Table 2 (PC-3, 72 h), read-out: IC50 anti-proliferative activity): 28 µM
Compound: COc1ccc(Cn2c(-c3cc4ccccc4n(C)c3=O)nc3cc(C)c(C)cc32)cc1 [3b]
viability at 15 µM (PC-3 cells; [5]): ≥ 56% | Hsp90 level (heat shock response) (Hsp90α/β): stabilize | Hsp70 level (heat shock response) (Hsp70): stabilize | viability at 25 µM (MDA-MB-231 cells; 25 µM): ~30% | CDK-4 client protein level (Western blot) (CDK-4): more decreased | CDK-4 client protein level (CDK-4): significant decrease

Compound: COc1cc(Nc2ncnc3c2nc(-c2cc4ccccc4n(C)c2=O)n3Cc2ccccc2)cc(OC)c1OC [C00016]
viability at 15 µM (PC-3 cells; [5]): 88% | viability at 72 h, 15 µM [4]: 81% | viability at 10 µM (MDA-MB-231 cells): 44% | viability at 15 µM (MDA-MB-231 cells): 55% | viability at 25 µM (MDA-MB-231 cells; 25 µM): 61%

Compound: Cc1cc(C)cc(-c2ncnc3c2nc(-c2cc4ccccc4n(C)c2=O)n3Cc2ccccc2)c1 [4e, 3-[9-benzyl-6-(3,5-dimethylphenyl)-9H-purin-8-yl]-1-methylquinolin-2(1H)-one]
viability at 15 µM (PC-3 cells; [5]): ≥ 56% | Hsp90 level (heat shock response) (Hsp90α/β): stabilize | viability at 72 h, 15 µM [4]: 71 to 79% | Hsp70 level (heat shock response) (Hsp70): stabilize | CDK-4 client protein level (Western blot) (CDK-4): degraded; also recorded: more decreased | CDK-4 client protein level (CDK-4): significant decrease

Compound: Cn1c(=O)c(-c2nc3c(-c4ccccc4)ncnc3n2Cc2ccccc2)cc2ccccc21 [C00009]
viability at 15 µM (PC-3 cells; [5]): 97% | viability at 72 h, 15 µM [4]: 82% | viability at 10 µM (MDA-MB-231 cells): 71% | viability at 15 µM (MDA-MB-231 cells): 62% | viability at 25 µM (MDA-MB-231 cells; 25 µM): 35%
